Experimental data taken from the NIST ThermoML archive (doi:10.1016/j.tca.2015.06.017).
± gives the expanded uncertainty stated by the source.

Test: xn = mol fraction of the nth substance listed
Settings: Liquid, Vibrating tube method

CCCCCl [1-chlorobutane] + CCCCCCC
mass density [kg/m3]
Settings	303.15 K	313.15 K
100 kPa, x2 = 0.0508	860.95 ± 0.24	849.81 ± 0.24
100 kPa, x2 = 0.0994	847.86 ± 0.24	836.88 ± 0.24
100 kPa, x2 = 0.2013	822 ± 0.24	811.33 ± 0.24
100 kPa, x2 = 0.3015	798.55 ± 0.24	788.17 ± 0.24
100 kPa, x2 = 0.4008	777.02 ± 0.24	766.92 ± 0.24
100 kPa, x2 = 0.5026	756.58 ± 0.24	746.79 ± 0.25
100 kPa, x2 = 0.6012	738.17 ± 0.25	728.67 ± 0.25
100 kPa, x2 = 0.7003	720.97 ± 0.25	711.73 ± 0.25
100 kPa, x2 = 0.7995	704.97 ± 0.25	695.88 ± 0.25
100 kPa, x2 = 0.9011	689.64 ± 0.25	680.8 ± 0.25
100 kPa, x2 = 0.9494	682.71 ± 0.25	673.98 ± 0.25
2000 kPa, x2 = 0.0508	863.1 ± 0.25	852.16 ± 0.25
2000 kPa, x2 = 0.0994	849.99 ± 0.25	839.22 ± 0.25
2000 kPa, x2 = 0.2013	824.16 ± 0.25	813.71 ± 0.25
2000 kPa, x2 = 0.3015	800.7 ± 0.26	790.49 ± 0.26
2000 kPa, x2 = 0.4008	779.13 ± 0.26	769.27 ± 0.26
2000 kPa, x2 = 0.5026	758.72 ± 0.26	749.1 ± 0.26
2000 kPa, x2 = 0.6012	740.28 ± 0.26	730.92 ± 0.26
2000 kPa, x2 = 0.7003	723.08 ± 0.27	713.94 ± 0.27
2000 kPa, x2 = 0.7995	707.04 ± 0.27	698.12 ± 0.27
2000 kPa, x2 = 0.9011	691.71 ± 0.27	683.02 ± 0.27
2000 kPa, x2 = 0.9494	684.78 ± 0.27	676.19 ± 0.27
5000 kPa, x2 = 0.0508	866.34 ± 0.26	855.66 ± 0.27
5000 kPa, x2 = 0.0994	853.23 ± 0.27	842.7 ± 0.27
5000 kPa, x2 = 0.2013	827.36 ± 0.27	817.15 ± 0.27
5000 kPa, x2 = 0.3015	803.89 ± 0.28	793.89 ± 0.28
5000 kPa, x2 = 0.4008	782.29 ± 0.28	772.63 ± 0.28
5000 kPa, x2 = 0.5026	761.81 ± 0.29	752.4 ± 0.29
5000 kPa, x2 = 0.6012	743.41 ± 0.29	734.17 ± 0.29
5000 kPa, x2 = 0.7003	726.22 ± 0.3	717.17 ± 0.3
5000 kPa, x2 = 0.7995	710.1 ± 0.3	701.32 ± 0.3
5000 kPa, x2 = 0.9011	694.74 ± 0.31	686.16 ± 0.31
5000 kPa, x2 = 0.9494	687.8 ± 0.31	679.3 ± 0.31
7000 kPa, x2 = 0.0508	868.42 ± 0.27	857.83 ± 0.28
7000 kPa, x2 = 0.0994	855.3 ± 0.28	844.87 ± 0.28
7000 kPa, x2 = 0.2013	829.43 ± 0.28	819.33 ± 0.29
7000 kPa, x2 = 0.3015	805.92 ± 0.29	796.12 ± 0.29
7000 kPa, x2 = 0.4008	784.34 ± 0.3	774.82 ± 0.3
7000 kPa, x2 = 0.5026	763.83 ± 0.31	754.59 ± 0.31
7000 kPa, x2 = 0.6012	745.42 ± 0.31	736.35 ± 0.31
7000 kPa, x2 = 0.7003	728.16 ± 0.32	719.35 ± 0.32
7000 kPa, x2 = 0.7995	712.06 ± 0.32	703.48 ± 0.33
7000 kPa, x2 = 0.9011	696.65 ± 0.33	688.32 ± 0.33
7000 kPa, x2 = 0.9494	689.71 ± 0.33	681.45 ± 0.33
10000 kPa, x2 = 0.0508	871.51 ± 0.29	861.16 ± 0.29
10000 kPa, x2 = 0.0994	858.41 ± 0.29	848.2 ± 0.3
10000 kPa, x2 = 0.2013	832.51 ± 0.3	822.59 ± 0.31
10000 kPa, x2 = 0.3015	808.97 ± 0.31	799.33 ± 0.32
10000 kPa, x2 = 0.4008	787.38 ± 0.32	777.95 ± 0.33
10000 kPa, x2 = 0.5026	766.86 ± 0.33	757.71 ± 0.33
10000 kPa, x2 = 0.6012	748.41 ± 0.34	739.49 ± 0.34
10000 kPa, x2 = 0.7003	731.09 ± 0.35	722.43 ± 0.35
10000 kPa, x2 = 0.7995	714.97 ± 0.35	706.51 ± 0.36
10000 kPa, x2 = 0.9011	699.57 ± 0.36	691.27 ± 0.37
10000 kPa, x2 = 0.9494	692.59 ± 0.37	684.4 ± 0.37
20000 kPa, x2 = 0.0508	881.1 ± 0.33	871.22 ± 0.34
20000 kPa, x2 = 0.0994	867.95 ± 0.34	858.21 ± 0.35
20000 kPa, x2 = 0.2013	841.94 ± 0.36	832.53 ± 0.37
20000 kPa, x2 = 0.3015	818.31 ± 0.38	809.13 ± 0.39
20000 kPa, x2 = 0.4008	796.57 ± 0.4	787.71 ± 0.4
20000 kPa, x2 = 0.5026	775.93 ± 0.41	–
20000 kPa, x2 = 0.6012	757.4 ± 0.43	–
20000 kPa, x2 = 0.7003	740.01 ± 0.44	–
20000 kPa, x2 = 0.7995	723.78 ± 0.46	–
20000 kPa, x2 = 0.9011	708.24 ± 0.47	–
20000 kPa, x2 = 0.9494	701.2 ± 0.48	–
30000 kPa, x2 = 0.0508	889.77 ± 0.36	–
30000 kPa, x2 = 0.0994	876.56 ± 0.38	–
30000 kPa, x2 = 0.2013	850.48 ± 0.41	–
30000 kPa, x2 = 0.3015	826.73 ± 0.44	–
30000 kPa, x2 = 0.4008	804.94 ± 0.46	–
30000 kPa, x2 = 0.5026	784.21 ± 0.49	–
30000 kPa, x2 = 0.6012	765.55 ± 0.51	–
30000 kPa, x2 = 0.7003	748.07 ± 0.53	–
30000 kPa, x2 = 0.7995	731.77 ± 0.55	–
30000 kPa, x2 = 0.9011	716.14 ± 0.57	–
30000 kPa, x2 = 0.9494	709.05 ± 0.58	–
40000 kPa, x2 = 0.0508	897.85 ± 0.39	–
40000 kPa, x2 = 0.0994	884.61 ± 0.41	–
40000 kPa, x2 = 0.2013	858.37 ± 0.45	–
40000 kPa, x2 = 0.3015	834.56 ± 0.49	–
40000 kPa, x2 = 0.4008	812.66 ± 0.53	–
40000 kPa, x2 = 0.5026	791.81 ± 0.56	–
40000 kPa, x2 = 0.6012	773.04 ± 0.59	–
40000 kPa, x2 = 0.7003	755.46 ± 0.62	–
40000 kPa, x2 = 0.7995	739 ± 0.65	–
40000 kPa, x2 = 0.9011	723.24 ± 0.67	–
40000 kPa, x2 = 0.9494	716.11 ± 0.68	–
50000 kPa, x2 = 0.0508	905.34 ± 0.42	–
50000 kPa, x2 = 0.0994	892.06 ± 0.44	–
50000 kPa, x2 = 0.2013	865.75 ± 0.49	–
50000 kPa, x2 = 0.3015	841.81 ± 0.54	–
50000 kPa, x2 = 0.4008	819.81 ± 0.58	–
50000 kPa, x2 = 0.5026	798.87 ± 0.63	–
50000 kPa, x2 = 0.6012	780.02 ± 0.66	–
50000 kPa, x2 = 0.7003	762.36 ± 0.7	–
50000 kPa, x2 = 0.7995	745.84 ± 0.73	–
50000 kPa, x2 = 0.9011	729.99 ± 0.76	–
50000 kPa, x2 = 0.9494	722.81 ± 0.78	–
60000 kPa, x2 = 0.0508	912.31 ± 0.44	–
60000 kPa, x2 = 0.0994	899.01 ± 0.47	–
60000 kPa, x2 = 0.2013	872.64 ± 0.53	–
60000 kPa, x2 = 0.3015	848.6 ± 0.59	–
60000 kPa, x2 = 0.4008	826.55 ± 0.64	–
60000 kPa, x2 = 0.5026	805.54 ± 0.69	–
60000 kPa, x2 = 0.6012	786.57 ± 0.73	–
60000 kPa, x2 = 0.7003	768.84 ± 0.78	–
60000 kPa, x2 = 0.7995	752.23 ± 0.82	–
60000 kPa, x2 = 0.9011	736.26 ± 0.85	–
60000 kPa, x2 = 0.9494	729.04 ± 0.87	–
65000 kPa, x2 = 0.0508	915.61 ± 0.45	–
65000 kPa, x2 = 0.0994	902.28 ± 0.48	–
65000 kPa, x2 = 0.2013	875.88 ± 0.55	–
65000 kPa, x2 = 0.3015	851.83 ± 0.61	–
65000 kPa, x2 = 0.4008	829.71 ± 0.66	–
65000 kPa, x2 = 0.5026	808.61 ± 0.72	–
65000 kPa, x2 = 0.6012	789.63 ± 0.77	–
65000 kPa, x2 = 0.7003	771.84 ± 0.81	–
65000 kPa, x2 = 0.7995	755.19 ± 0.86	–
65000 kPa, x2 = 0.9011	739.21 ± 0.9	–
65000 kPa, x2 = 0.9494	731.94 ± 0.92	–
